In patent publication US20090029949A1, “GPCR Ligands Identified by Computational Modeling” (priority 2006, published 2009):
“Also recorded” adds a separate entry of the source. Peptide text beside a SMILES is read from it. * marks the point of attachment. Dnp = O=[N+]([O-])c1ccc(*)c([N+](=O)[O-])c1

Legend:
LPA3 = target: T1, LPA3 (Homo sapiens, UniProt Q9UBY5); test: LPA agonist/antagonist activity at LPA3 (Table 2); assay type: cell-based; conditions: for LPA3 effect: result in words; for LPA3 inhibition of 200 nM LPA response at 30JM: compound at 30JM
T1 sequence (Q9UBY5 1-353): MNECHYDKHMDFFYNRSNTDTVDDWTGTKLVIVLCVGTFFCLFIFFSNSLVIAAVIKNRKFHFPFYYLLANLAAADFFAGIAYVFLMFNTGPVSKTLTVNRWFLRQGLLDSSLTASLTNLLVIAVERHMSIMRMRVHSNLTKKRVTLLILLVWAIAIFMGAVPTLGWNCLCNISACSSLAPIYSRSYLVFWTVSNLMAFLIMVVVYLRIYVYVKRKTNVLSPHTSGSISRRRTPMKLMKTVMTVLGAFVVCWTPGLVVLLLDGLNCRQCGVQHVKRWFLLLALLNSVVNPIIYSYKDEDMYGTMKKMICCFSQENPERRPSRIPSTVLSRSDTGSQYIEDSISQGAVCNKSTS

LPA1 = LPA1 (Homo sapiens, UniProt Q92633); test: LPA agonist/antagonist activity at LPA1 (Table 2); assay type: cell-based; conditions: for LPA1 effect: result in words
LPA1, sequence (Q92633 whole entry, species assumed): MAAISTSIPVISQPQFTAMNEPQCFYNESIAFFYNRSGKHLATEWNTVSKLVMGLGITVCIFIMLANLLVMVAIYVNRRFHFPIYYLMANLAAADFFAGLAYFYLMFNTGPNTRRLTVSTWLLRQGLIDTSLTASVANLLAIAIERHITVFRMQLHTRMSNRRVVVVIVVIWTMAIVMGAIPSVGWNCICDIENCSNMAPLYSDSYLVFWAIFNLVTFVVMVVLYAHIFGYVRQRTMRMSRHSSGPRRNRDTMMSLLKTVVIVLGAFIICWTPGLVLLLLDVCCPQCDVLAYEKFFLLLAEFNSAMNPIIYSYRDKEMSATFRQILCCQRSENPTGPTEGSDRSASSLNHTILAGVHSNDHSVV

LPA2 = LPA2 (Homo sapiens, UniProt Q9HBW0); test: LPA agonist/antagonist activity at LPA2 (Table 2); assay type: cell-based; conditions: for LPA2 effect: result in words
LPA2, sequence (Q9HBW0 whole entry, species assumed): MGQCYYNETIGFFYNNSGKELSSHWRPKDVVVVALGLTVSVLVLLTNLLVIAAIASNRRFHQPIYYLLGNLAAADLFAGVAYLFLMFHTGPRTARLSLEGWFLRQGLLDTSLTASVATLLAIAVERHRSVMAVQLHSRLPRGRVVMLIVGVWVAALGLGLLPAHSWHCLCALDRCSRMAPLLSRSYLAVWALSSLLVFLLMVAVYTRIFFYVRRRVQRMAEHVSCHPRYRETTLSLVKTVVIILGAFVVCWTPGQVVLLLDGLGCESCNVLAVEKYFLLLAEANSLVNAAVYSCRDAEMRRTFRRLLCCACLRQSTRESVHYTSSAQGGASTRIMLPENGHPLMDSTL

WT S1P1 = WT S1P1 (Homo sapiens, UniProt P21453); test: Ligand-induced [35S]GTPγS binding, WT S1P1; assay type: biochemical; design: expressed in transfected cells; host or cells: RH7777 (transient, pcDNA3.1); conditions: for S1P1 receptor activation in the GTPγS activation assay: at 10 μM, versus vehicle; for S1P1 agonist character: result in words
WT S1P1, sequence (P21453 whole entry): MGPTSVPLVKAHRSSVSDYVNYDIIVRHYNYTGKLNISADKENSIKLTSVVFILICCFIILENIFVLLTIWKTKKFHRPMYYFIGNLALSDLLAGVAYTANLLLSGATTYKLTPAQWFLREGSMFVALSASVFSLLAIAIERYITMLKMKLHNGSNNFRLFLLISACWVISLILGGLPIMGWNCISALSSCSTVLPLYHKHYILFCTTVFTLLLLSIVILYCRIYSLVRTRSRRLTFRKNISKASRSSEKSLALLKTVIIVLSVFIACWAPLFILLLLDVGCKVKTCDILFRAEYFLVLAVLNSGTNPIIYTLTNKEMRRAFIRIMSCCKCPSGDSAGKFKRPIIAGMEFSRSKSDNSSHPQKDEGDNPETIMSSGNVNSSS
Protocol: (§1) RH7777 and HEK-293 cells (ATCC, Manassas, Va.) were maintained in Dulbecco's modified minimal essential medium (DMEM) containing 10% fetal bovine serum (Hyclone, Logan, Utah). Cells (2×10^6) were transfected with 2 μg of plasmid DNA with Effectene (Qiagen, Valencia, Calif.) according to the manufacturer's instructions, for 24 h. Before ligand binding and receptor activation assays, the cells were washed twice with serum-free DMEM and serum-starved for at least 6 h.
(§2) S1P1 Receptor Activation Assays Receptor functional assays were performed in transiently transfected RH7777 cells by measuring S1P-activated [^35S]GTPγS binding as previously described (28).

S1P1 mutant V6.40L = target: T2, S1P1 mutant V6.40L (Homo sapiens, UniProt P21453, V261L); test: [35S]GTPγS binding, S1P1 V6.40L; assay type: biochemical; conditions: S1P1 V6.40L, result in words
T2 construct: expressed in transfected cells; host or cells: RH7777
T2 sequence (P21453 whole entry V261L): as the sequence (P21453 whole entry) above, with V261L counted along it
Protocol: as §1, §2

S1P1 mutant L3.36E = S1P1 mutant L3.36E (Homo sapiens, UniProt P21453, L128E); test: [35S]GTPγS binding, S1P1 L3.36E; assay type: biochemical; design: expressed in transfected cells; host or cells: RH7777 (transient, pcDNA3.1); conditions: S1P1 L3.36E, result in words, compared with S1P
S1P1 mutant L3.36E, sequence (P21453 whole entry L128E): as the sequence (P21453 whole entry) above, with L128E counted along it
Protocol: as §1, §2

S1P1 mutant F5.48G = target: T3, S1P1 mutant F5.48G (Homo sapiens, UniProt P21453, F210G); test: [35S]GTPγS binding, S1P1 F5.48G; assay type: biochemical; conditions: S1P1 F5.48G, result in words, compared with S1P
T3 construct: expressed in transfected cells
T3 sequence (P21453 whole entry F210G): as the sequence (P21453 whole entry) above, with F210G counted along it
Protocol: as §1, §2

S1P1 mutant W6.48A = target: T4, S1P1 mutant W6.48A (Homo sapiens, UniProt P21453, W269A); test: [35S]GTPγS binding, S1P1 W6.48A; assay type: biochemical; conditions: S1P1 W6.48A, result in words, compared with S1P
T4 construct: expressed in transfected cells
T4 sequence (P21453 whole entry W269A): as the sequence (P21453 whole entry) above, with W269A counted along it
Protocol: as §1, §2

Row | Structure (SMILES) | LPA1 effect (LPA1) | LPA2 effect (LPA2) | IC50 (LPA3) | IC50 (LPA2) | LPA3 Inhibition of 200 nM LPA response (LPA3) | other results
1 | OC1C(O)[C@@H](COP(O)(O)=S)O[C@H]1n1cnc2c(NCc3ccccc3)ncnc21 (some centres unmarked) | No effect | PotentiatesLPA-inducedactivation | – | – | – | LPA3 effect (LPA3): No effect
2 | CCN(CC)CCOc1ccc(/C(C#N)=C\c2ccc(C(F)(F)F)cc2)cc1 [NSC59474] | – | – | – | – | – | S1P1 receptor activation in the GTPγS activation assay (WT S1P1): GTPγS activation greater than that of the vehicle; S1P1 agonist character (WT S1P1): partial agonists
3 | O=C(c1ccccc1Cc1ccc2ccc(C(F)(F)F)cc2c1)c1cccc2ccccc12 [NSC99548] | – | – | – | – | – | S1P1 receptor activation in the GTPγS activation assay (WT S1P1): GTPγS activation greater than that of the vehicle; S1P1 agonist character (WT S1P1): partial agonists
4 | Cc1cc2nc3c(=O)[nH]c(=O)nc-3n(CCOC(=O)CCC(=O)O)c2cc1C [NSC 3066] | – | – | 103 nM | 167 nM | – | Ki (LPA3): 44.8 nM; IC50 (LPA1): 197 nM; Ki (LPA1): 91.7 nM; Ki (LPA2): 78.7 nM
5 | COc1ccc(C(=O)CCCC(=O)O)c(OC)c1O [NSC 10167] | No Effect | – | 517 nM | 88 nM | 49.9% | LPA2 Inhibition of 10 nM LPA response (LPA2): 47.4%
6 | O=C(NC(Cc1ccc2c(c1)OCO2)C(=O)O)c1ccccc1 (centres unmarked) [NSC 10188] | Weak agonist | – | – | 6900 nM | – | LPA3 effect (LPA3): No effect; LPA2 inhibition of 200 nM LPA response at 30JM (LPA2; 200 nM LPA, compound at 30JM): 55.8%
7 | COC(=O)C(CCC(=O)O)N1C(=O)c2ccccc2C1=O (centres unmarked) [NSC 16540] | No effect | – | 231 nM | 100 nM | 59.7% | LPA2 Inhibition of 10 nM LPA response (LPA2): 50.9%
8 | O=C(O)/C=C/C(=O)Nc1cccc(NC(=O)/C=C/C(=O)O)c1C(=O)O [NSC 47091] | No effect | – | 30 nM | 355 nM | 81.7% | LPA2 Inhibition of 10 nM LPA response (LPA2): 53.5%
9 | Cn1c(=O)c2c(nc(C(=N)SCC(=O)O)n2C)n(C)c1=O [NSC 62586] | – | – | 35 nM | 172 nM | – | Ki (LPA3): 15.7 nM; IC50 (LPA1): 234 nM; Ki (LPA1): 91.7 nM; Ki (LPA2): 117 nM
10 | CCCC(=O)Nc1ncnc2c1ncn2C1OC2COP(=O)(O)OC2C1OC(=O)CCC (centres unmarked) [NSC 143108] | Weak agonist | No Effect | 1310 nM | – | – | LPA3 inhibition of 200 nM LPA response at 30JM (LPA3): 61.0%
11 | NCC(=O)NC(CSc1ccc([N+](=O)[O-])cc1[N+](=O)[O-])C(=O)NC(CCC(=O)O)C(=O)O (centres unmarked) [NSC 161613] (H-Gly-Cys(Dnp)-Glu-OH; configuration not given here) | No effect | No effect | 24 nM | – | 69.8% | –
12 | O=P(O)(O)OC[C@H]1O[C@@H](n2cnc3c(NCc4ccccc4)ncnc32)C(O)C1O (some centres unmarked) [NSC 255523] | No effect | No effect | – | – | – | LPA3 effect (LPA3): PotentiatesLPA-inducedactivation
13 | FC(F)(F)c1cccc(-c2noc(-c3cc(-c4ccccc4)c(C(F)(F)F)s3)n2)c1 [SEW2871] | – | – | – | – | – | ligand-induced GTPγS activation (S1P1 mutant V6.40L): slightly activated; also recorded: partial activation; ligand-induced GTPγS activation (S1P1 mutant V6.40L; listed as SE2871): dose-dependent partial activation; ligand-induced GTPγS activation (S1P1 mutant L3.36E): similarly impaired activation; ligand-induced GTPγS activation (S1P1 mutant F5.48G): similarly impaired activation; ligand-induced GTPγS activation (S1P1 mutant W6.48A): similarly impaired activation

Second part, led by results:

Row | LPA1 effect (LPA1) | LPA2 effect (LPA2) | IC50 (LPA3) | IC50 (LPA2) | LPA3 Inhibition of 200 nM LPA response (LPA3) | Structure (SMILES) | other results
14 | No effect | – | 9 nM | 20 nM | 58.7% | O=C(O)CCC(NC(=O)OCc1ccccc1)C(=O)NC(Cc1ccccc1)C(=O)O (centres unmarked) [NSC 18760] | LPA2 Inhibition of 10 nM LPA response (LPA2): 53.3%
15 | Weak agonist | No Effect | – | – | – | COc1ccc2c(c1)c(CC(=O)O)c(C)n2C(=O)c1ccc(Cl)cc1 [NSC 77541] | LPA3 inhibition of 200 nM LPA response at 30JM (LPA3): 76.2%
